Molecular target: T1, Cystathionine beta-synthase (CBS) (Homo sapiens, UniProt P35520)
T1 construct: endogenous in cells; host or cells: MCF7
Assay: In situ competitive profiling in live MCF7 cells (LFQ): CBS
Format: cell-based
Settings: protein CBS, 4 h, then 10 µM 24c, n=4
Source text: In our efforts to determine the direct molecular targets of deoxyelephantopin we first performed a gel-based competitive in situ proteomic profiling assay[41] […] While the greater conformational flexibility of probe 24c could potentially lead to more promiscuous target engagement relatively to deoxyelephantopin, it was favoured based on the fact that an alkyne moiety appended to the rigid scaffold of deoxyelephantopin may hinder some of its interactions. MCF7 cells were pretreated with various concentrations of deoxyelephantopin for 4 h, harvested, lysed and the lysates were treated with the fluorogenic probe 24c-Cy3 (10 μM; Supplementary Fig. 10). […] Furthermore, cells were pretreated with 20 μM concentration of deoxyelephantopin or 24c and the proteomic profiles were compared (Fig. 6b, Supplementary Fig. 11). Multiple bands were detected that were equally competed by both DEP and 24c, thus again confirming that 24c can be used as an acceptable clickable analogue of deoxyelephantopin in pulldown assays. Having established the optimal labelling conditions by SDS–PAGE, we next carried out a mass spectrometry-based competitive profiling assay[42] coupled with the method of stable isotope labelling of amino acids in culture (SILAC)[43]. […]
Figure 6 Proteome-wide identification of deoxyelephantopin targets. […] Quantification was performed using label-free quantification (LFQ) method (n=4). […]

T1 sequence (P35520 whole entry): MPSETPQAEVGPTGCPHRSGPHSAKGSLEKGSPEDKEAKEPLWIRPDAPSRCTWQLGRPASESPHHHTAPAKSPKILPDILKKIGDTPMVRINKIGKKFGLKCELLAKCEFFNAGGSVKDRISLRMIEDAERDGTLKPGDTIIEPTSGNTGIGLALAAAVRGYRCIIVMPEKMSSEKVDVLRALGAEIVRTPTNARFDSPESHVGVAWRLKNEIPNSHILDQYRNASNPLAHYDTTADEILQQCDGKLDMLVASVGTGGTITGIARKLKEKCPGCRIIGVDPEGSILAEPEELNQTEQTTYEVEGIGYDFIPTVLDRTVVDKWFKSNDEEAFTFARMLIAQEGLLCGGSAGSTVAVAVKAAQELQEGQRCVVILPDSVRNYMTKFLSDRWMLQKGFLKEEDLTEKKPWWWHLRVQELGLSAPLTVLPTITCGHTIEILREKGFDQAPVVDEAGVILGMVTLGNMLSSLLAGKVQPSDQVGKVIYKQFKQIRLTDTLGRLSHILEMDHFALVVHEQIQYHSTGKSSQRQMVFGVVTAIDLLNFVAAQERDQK

C=C(C)C(=O)O[C@H]1CC2=C[C@@H](C/C(C)=C/[C@H]3OC(=O)C(=C)[C@H]13)OC2=O [deoxyelephantopin]
LFQ ratio 20 µM Deoxyelephantopin/DMSO with 24c: 0.00
